Molecules are shown by their SMILES. Values after ≈ are worked out from the molar mass of the structure shown. Values joined by “and” are separate entries in the source; they are usually repeats but may differ in a detail not shown here. Equal values may be shown once.

The test system of one experiment is HSV-2. Briefly: Cytopathic effect inhibition assay, HSV-2. The class given is cell-based. The settings on record: Human alphaherpesvirus 2; Table 19; read-out: EC50 HSV-2 CPE. The procedure: (§1) Newborn human foreskin were obtained as soon as possible after circumcisions were performed and placed in minimal essential medium (MEM) containing vacomycin, fungizone, penicillin, and gentamycin, at the usual concentrations, for four hours. The medium was then removed, the foreskin minced into small pieces and washed repeatedly until red cells were no longer present. The tissue was then trypsinized using trypsin at 0.25% with continuous stirring for 15 minutes at 37°C in a CO2 incubator. At the end of each 15 minute period, the tissue was allowed to settle to the bottom of the flask. The supernatant containing cells was poured through sterile cheesecloth into a flask containing MEM and 10% fetal bovine serum. The flask containing the medium was kept on ice through out the trypsinizing procedure. After each addition of cells, the cheesecloth was washed with a small amount of MEM containing serum. Fresh trypsin was added each time to the foreskin pieces and the procedure repeated until no more cells became available. The cell containing medium was then centrifuged at 1000 RPM at 4°C for ten minutes. The supernatant liquid was discarded and the cells resuspended in a small amount of MEM with 10% FBS. The cells were then placed in an appropriate number of 25 cm^2 tissue culture flasks. As cells became confluent and needed trypsinization, they were gradually expanded into larger flasks. […]
On the technique in general: Cytopathic effects are the visible damage that an infection or toxin causes in cultured cells.

A further experiment relates to HSV-2 strain 186. Description: Mouse genital HSV-2 model, intravaginal prophylaxis. It is filed as in vivo, Swiss Webster mice. As to conditions: Table 21; for Virus Isolated / Dead: 2% intravaginal, one treatment just prior to HSV-2 challenge, 15 mice; for Virus Isolated: number of animals; for Dead: observed to day 21 PI. The procedure: Sixty female Swiss Webster mice pretreated with medroxyprogesterone acetate were randomized to four groups of 15 to receive either Saline (control), 2 % Acyclovir, 2 % Compound 96, or 0.5% Compound 96. Animals were anesthetized by intraperitoneal injection of sodium pentabarbital and then administered 15 µl of control or test compound intravaginally in one treatment. They were then immediately challenged by intravaginal instillation with 15 µl of a suspension containing 10^4 plaque forming units HSV-2 strain 186. Vaginal swabs were collected on days 1 and 2 post-inoculation (PI) to assess the effect of treatment on vaginal replication in the genital tract. In addition, all animals were examined daily until day 21 PI for mortality and signs of infection (erythema, hair loss and hind limb paralysis).

A further experiment relates to EBV. Description: EBV screening test (IMN). The class given is cell-based. As to conditions: human gammaherpesvirus 4, Table 19.
The next experiment relates to VZV. Description: Plaque reduction assay, VZV. The class given is cell-based. Details: EC50 VZV Plaque: unit not given beside the values. The procedure:
Two days prior to use, HFF cells are plated into six well plates and incubated at 37°C with 5% CO2 and 90% humidity. On the date of assay, the drug is made up at twice the desired concentration in 2X MEM and then serially diluted 1:5 in 2X MEM using six concentrations of drug. The initial starting concentration isusually 200 µg/ml down to 0.06 µg/ml. The virus to be used is diluted in MEM containing 10% FBS to a desired concentration which will give 20 - 30 plaques per well. […] The plates are then incubated for one hour with shaking every fifteen minutes. After the incubation period, an equal amount of 1% agarose was added to an equal volume of each drug dilution. This will give final drug concentrations beginning with 100 µg/ml and ending with 0.03 µg/ml and a final agarose overlay concentration of 0.5%. […] At the end of 4-6 hr incubation period, the stain is aspirated, and plaques counted using a stereomicroscope at 10X magnification. […] After addition of the drug, the plates are incubated for ten days. • 2. On days three and six an additional 1 ml overlay with equal amounts of 2X MEM and 1% agarose are added. The procedure for the liquid overlay plaque assay is similar to that using the agarose overlay. The procedure for adding the virus is the same as for the regular plaque assay. The drugs are made up in a concentration to be used in MEM with 2% FBS. […]

Experiment [1] has as its system HSV-1. Briefly: Plaque reduction assay, HSV-1. The class given is cell-based. The settings on record: Human alphaherpesvirus 1; Table 19. The procedure: Two days prior to use, HFF cells are plated into six well plates and incubated at 37°C with 5% CO2 and 90% humidity. On the date of assay, the drug is made up at twice the desired concentration in 2X MEM and then serially diluted 1:5 in 2X MEM using six concentrations of drug. The initial starting concentration isusually 200 µg/ml down to 0.06 µg/ml. The virus to be used is diluted in MEM containing 10% FBS to a desired concentration which will give 20 - 30 plaques per well. […] The plates are then incubated for one hour with shaking every fifteen minutes. After the incubation period, an equal amount of 1% agarose was added to an equal volume of each drug dilution. This will give final drug concentrations beginning with 100 µg/ml and ending with 0.03 µg/ml and a final agarose overlay concentration of 0.5%. […] At the end of 4-6 hr incubation period, the stain is aspirated, and plaques counted using a stereomicroscope at 10X magnification. The procedure for the liquid overlay plaque assay is similar to that using the agarose overlay. The procedure for adding the virus is the same as for the regular plaque assay. The drugs are made up in a concentration to be used in MEM with 2% FBS. […] For CMV and VZV, no antibody in the overlay is utilized. For the CMV assay, additional medium without new drug is added on day six and allowed to incubate for a total of 11 days. […]
For orientation: Plaque reduction counts the foci of infection that form in a cell layer.

For experiment [2], the system named is HSV-1. Description: Cytopathic effect inhibition assay, HSV-1. It is filed as cell-based. As to conditions: Human alphaherpesvirus 1; Table 19; read-out: EC50 HSV-1 CPE. The procedure: as §1
In experiment [3] the test system is HCMV. Description: Plaque reduction assay, HCMV. The class given is cell-based. As to conditions: Human betaherpesvirus 5, Table 19. The procedure: Two days prior to use, HFF cells are plated into six well plates and incubated at 37°C with 5% CO2 and 90% humidity. On the date of assay, the drug is made up at twice the desired concentration in 2X MEM and then serially diluted 1:5 in 2X MEM using six concentrations of drug. The initial starting concentration isusually 200 µg/ml down to 0.06 µg/ml. The virus to be used is diluted in MEM containing 10% FBS to a desired concentration which will give 20 - 30 plaques per well. The media is then aspirated from the wells and 0.2 ml of virus is added to drug toxicity wells. The plates are then incubated for one hour with shaking every fifteen minutes. After the incubation period, an equal amount of 1% agarose was added to an equal volume of each drug dilution. This will give final drug concentrations beginning with 100 µg/ml and ending with 0.03 µg/ml and a final agarose overlay concentration of 0.5%. The drug agarose mixture is applied to each well in 2 ml volume and the plates then incubated for three days, after which the cells were stained with a 1.5 % solution of neutral red. At the end of 4-6 hr incubation period, the stain is aspirated, and plaques counted using a stereomicroscope at 10X magnification.
The procedure is essentially the same as for HSV analysis with the following minor changes. […]

For experiment [4], the system named is HCMV. As to conditions: Table 19. The procedure: as §1
The subject of another experiment is HFF cells. Briefly: Cell proliferation assay. It is filed as cell-based, human. As to conditions: Table 20; RAPIDLY GROWING CELLS. The procedure:
On the day of the assay, drugs are diluted serially in MEM containing 10% FBS at increments of 1:5 covering a range from 100 μg/ml to 0.03 μg/ml. For drugs that have to be solubilized in DMSO, control wells […] MEM containing 10% DMSO. The media from the wells is then aspirated and 2 ml of each drug concentration is then added to each well. The cells are then incubated in a CO2 incubator at 37°C for 72 hours. At the end of this time, the media-drug solution is removed and the cells washed. […] The cell-media mixture is then pipetted up and down vigorously to break up the cell suspension and 0.2 ml of the mixture is added to 9.8 ml of Isoton III and counted using a Coulter Counter. Each sample is counted three times with three replicate wells per sample.

Setting [5] is: 2%, mean log10 viral titers ± SEM, infected animals only.

For orientation: EC50 means the concentration that produces a half-maximal response. For `Nc1nc2c(ncn2COCCO)c(=O)[nH]1` [Acyclovir], the EC50 stood at 0.7 µg/mL (≈ 3.11 µM) in the experiment on HSV-2; 6 µg/mL (≈ 26.6 µM) in the experiment with EBV; 3.2 µg/mL (≈ 14.2 µM) in the experiment on VZV (Human alphaherpesvirus 3, Table 19); 0.2 µg/mL (≈ 0.888 µM) with HSV-1 [1]; 0.2 µg/mL (≈ 0.888 µM) in the experiment on HSV-1 [2]. Besides, the “Virus Isolated” value in the experiment on HSV-2 strain 186 is reported as 12; with HSV-2 strain 186 (listed as acyclovir), 12/15. Also, the Dead was 12 in the experiment with HSV-2 strain 186 and 12/15 in the experiment with HSV-2 strain 186 (listed as acyclovir). In addition, the “Vaginal Virus Titer Day 1” value in the experiment on HSV-2 strain 186 (setting [5]) is 1.96 ± 0.38 log10. In addition, the “Vaginal Virus Titer Day 2” value in the experiment on HSV-2 strain 186 (setting [5]) was 3.82 ± 0.38 log10. Further, in the experiment with VZV (Table 19, listed as ACV), the “EC50 VZV Plaque” value is 4.4 and 3.1 and 3.0.

Regarding `Nc1nc2c(ncn2COC(CO)CO)c(=O)[nH]1` [DHPG], a half-maximal response in the experiment with HCMV [3] (EC50) required 0.7 µg/mL (≈ 2.74 µM). Further, the EC50 HCMV CPE in the experiment on HCMV [4] amounted to 0.8 µg/mL (≈ 3.13 µM).

`O=c1[nH]c(=O)n([C@@H]2O[C@H](CO)[C@@H](O)[C@@H]2F)cc1I` [FIAU, 2'-fluoro-5-iodo-arabinosyl-uracil]: the “TOXICITY ASSAYS - IC50 CELL PROLIFERATION” value in the experiment with HFF cells was 3.3 MCG/ML and 8.4 MCG/ML.

(Values after EP1075186B1, “METHOD OF HSV PROPHYLAXIS” (The Children's Hospital Research Foundation, priority 1998, dated 1999).)
